pIC50: −log10 of the molar value. “Also recorded” adds a separate entry of the source. One block for each compound: values may come before it.
Legend:
[1] = tested on: T1, folded MR1 in C1R.MR1 cells; test: intracellular total folded MR1 by flow cytometry (8F2.F9); format: cell-based, human; settings: 16 h, 100 µM
T1 construct: expressed in transfected cells; host or cells: C1R B lymphoblastoid cells transduced with MR1*01

hMR1 protein = target: T2, hMR1 protein (Homo sapiens, UniProt Q95460); test: fluorescence polarization–based cell-free assay, competition with JYM20 for MR1 binding; settings: 50% inhibition of 10 nM JYM20 binding to 100 nM empty hMR1, 37°C; three independent experiments in triplicate
T2 construct: plasmids encoding for the extracellular domains of MR1, β2m, and the AF-7 TCRα and TCRβ chains; made in house; host or cells: Escherichia coli BL21(DE3)

[2] = tested on: T3, human MR1–β2-microglobulin (β2m) complex; test: refolding of recombinant MR1-β2m with ligand; format: binding; settings: ligand added to refolding buffer; gel filtration and SDS-PAGE
T3 construct: plasmids encoding for the extracellular domains of MR1, β2m, and the AF-7 TCRα and TCRβ chains; made in house

[3] = tested on: SKW-3 cells expressing MAIT TCR AF-7; test: SKW-3 reporter T cell activation (CD69), coculture with C1R.MR1; format: cell-based; settings: for reactivity to 5-OP-RU (CD69): SKW-3-AF-7, in the presence of 1 nM 5-OP-RU; for reactivity to RL-7-Me (CD69): SKW-3-AF-7, in the presence of 100 nM RL-7-Me
Experimental: (§1) Given the intracellular MR1 retention induced by the RF catabolites, we anticipated that these ligands could influence the activity of MR1-reactive T cells. First, we utilized a system whereby reporter SKW-3 T cell lines were cocultured with C1R.MR1 APCs and activation was determined by CD69 expression. […] In contrast, SKW-3-MBV28 cells were inhibited by alloxazine but activated by lumichrome (Fig. S3, D–F). Two MR1-restricted TRAV1-2^−ve SKW-3 T cell lines were also tested.
(§2) C1R.MR1 cells (1 × 10^5) were initially stained with CTV (Thermo Fisher Scientific) for 15 min and then incubated with RF catabolites for 20 h. […] Cells were subsequently stained with PE-Cy7-conjugated anti-CD69 (1:100; BD Biosciences) and PE-labeled anti-MR1 (1:100, clone 26.5; BD Biosciences), before analysis on a LSRFortessa (BD Biosciences) flow cytometer. Activation of the SKW-3 cells was reflected by the cell surface CD69 expression.

[4] = tested on: T4, MR1 on PBMC-derived B lymphocytes; test: MR1 surface expression on primary B cells; format: cell-based; settings: primary human B cells, 16 h, highest doses, with or without 5-OP-RU
T4 construct: we also measured MR1 on the surface of cells expressing wild-type levels of MR1; endogenous in cells; host or cells: PBMC-derived B lymphocytes from healthy human donors

soluble WT MR1 = test: fluorescence-based thermal shift (thermostability) assay of MR1–ligand complexes; format: binding, human; settings: MR1 refolded with the ligand; SYPRO Orange, 28 to 95°C; three independent experiments; listed as MR1-Lumiflavin
[5] = tested on: T5, MR1^K43A on C1R.MR1^K43A cells; test: cell surface MR1^K43A by flow cytometry; format: cell-based, human
T5 construct: expressed in transfected cells; host or cells: C1R cells overexpressing MR1^K43A
From the text: (§3) We then tested the effect of the RF catabolites on the expression of two mutant versions of MR1 termed MR1^R9H ([Howson et al., 2020]) and MR1^K43A ([Reantragoon et al., 2013]). First, we tested the MR1^R9H mutant ([Howson et al., 2020]), which represents a rare, natural human polymorph. […] We used C1R.MR1^R9H cells, which are produced by stable transduction of wild-type C1R cells, which express low levels of wild-type MR1, with a vector expressing the MR1^R9H mutant ([Howson et al., 2020]). […] When C1R. […] Next, we sought to understand how the previously characterized K43A mutation affects ligand binding.
The level of MR1 expressed on the cell surface was measured after the exposure to the investigated ligands as previously described ([Awad et al., 2020a]; [Wang et al., 2022a]). C1R Ag-presenting B lymphocytes overexpressing MR1*01 (C1R.MR1), MR1^K43A mutant (C1R.MR1^K43A), MR1^R9H mutant (C1R.MR1^R9H), or HLA-A*02:01 (C1R-A2), in addition to the monocytic THP-1-MR1 cells, were used in this study. 2 × 10^5 cells were incubated with RF catabolites for 3 or 16 h at 37°C and 5% CO2 in 200 μl folate-free RPMI 1640 medium from Gibco (Cat. No. 11875-093) fortified with 10% fetal bovine serum, sodium pyruvate (1 mmol/L), HEPES buffer (15 mmol/L), pH 7.2–7.5, 2% penicillin (100 U/ml), streptomycin ([…]), GlutaMAX (2 mmol/L), nonessential amino acids (0.1 mmol/L) (all from Thermo Fisher Scientific, Life Technologies), and 2-mercaptoethanol ([…], Sigma-Aldrich) (RF-10). After incubation, the cells were first stained with Zombie Aqua Fixable Viability Kit from BioLegend (Cat. No. 423102) and then incubated with biotinylated 8F2F9 αMR1 antibody for 30 min on ice. The unbound antibody was then washed off with 2% fetal bovine serum/PBS (called 2% FACS hereafter) buffer. The cells were finally incubated with PE-conjugated streptavidin (30 μg/ml; BioLegend) and then washed with 2% FACS buffer. The PE fluorescence intensity reflects the surface MR1 level. The data were acquired with LSRFortessa X-20 (BD Biosciences) and Diva software (BD Biosciences) and analyzed using FlowJo software (BD Biosciences).

[6] = tested on: T6, surface MR1*01 on THP-1.MR1 cells; test: quantification of cell surface MR1 by flow cytometry, THP-1.MR1 cells; format: cell-based, human; settings: 3 h
T6 construct: expressed in transfected cells; host or cells: THP-1 monocytic cells transduced with MR1
Experimental: Next, we investigated whether these RF catabolites can impact MR1 cell surface expression in both MR1-transduced B cell lymphoblastoid (C1R.MR1) and monocytic (THP-1.MR1) cell lines (Fig. 2). Here, the cells were incubated with 1–200 µM of RF or the RF catabolites, and the cell surface levels of MR1 were quantified by flow cytometry ([Awad et al., 2020a]; [Keller et al., 2017]). […] The MR1 downregulation seen in C1R.MR1 cells was specific to MR1 as the level of HLA-A*02:01 was not affected after incubating C1R-A2 with the ligands (Fig. S1 E). […] This MR1 downregulation varied between cell types, with a higher extent observed in THP-1.MR1 than C1R.MR1, and was seen after staining with two different conformational anti-MR1 antibodies (clones 8F2F9 and 26.5; Fig. 2 G). Beyond APCs overexpressing MR1, we also measured MR1 on the surface of cells expressing wild-type levels of MR1.
(§4) The level of MR1 expressed on the cell surface was measured after the exposure to the investigated ligands as previously described ([Awad et al., 2020a]; [Wang et al., 2022a]). […] The PE fluorescence intensity reflects the surface MR1 level. The data were acquired with LSRFortessa X-20 (BD Biosciences) and Diva software (BD Biosciences) and analyzed using FlowJo software (BD Biosciences).

MR1 on C1R.MR1 cells = tested on: T7, MR1 on C1R.MR1 cells; test: competition with Ac-6-FP or 5-OP-RU for MR1 upregulation, C1R.MR1 cells; format: cell-based, human; settings: 1–200 µM overnight
T7 construct: expressed in transfected cells; host or cells: C1R B lymphoblastoid cells transduced with MR1*01

[7] = tested on: SKW-3 cells expressing MAIT TCR MBV28; test: SKW-3 reporter T cell activation (CD69), coculture with C1R.MR1; format: cell-based; settings: SKW-3 MBV28 cocultured with C1R.MR1, no agonist
Experimental: as §1, §2

[8] = tested on: T8, surface MR1*01 on C1R.MR1 cells; test: quantification of cell surface MR1 by flow cytometry, C1R.MR1 cells; format: cell-based, human; settings: C1R.MR1 cells, 1–200 µM, 8F2F9 antibody
T8 construct: expressed in transfected cells; host or cells: C1R B lymphoblastoid cells transduced with MR1*01

[9] = tested on: MAIT and TRAV1-2^−ve cells from PBMCs; test: TCR-independent or bead stimulation of PBMCs (PMA and ionomycin, αCD3/αCD28 beads); format: cell-based, human; settings: PBMCs preincubated 16 h, then PMA and ionomycin; MAIT or non-MAIT TRAV1-2^−ve cells
MR1 on THP-1.MR1 cells = tested on: T9, MR1 on THP-1.MR1 cells; test: competition with Ac-6-FP for MR1 upregulation, THP-1.MR1 cells; format: cell-based, human; settings: 1–200 µM overnight, then 10 µM Ac-6-FP for 3 h
T9 construct: expressed in transfected cells; host or cells: THP-1 monocytic cells transduced with MR1

[10] = tested on: T10, MR1^R9H on C1R.MR1^R9H cells; test: cell surface MR1^R9H by flow cytometry; format: cell-based, human
T10 construct: expressed in transfected cells; host or cells: C1R cells stably transduced with MR1^R9H
From the text: as §3
as §4, with “2022a]). C1R Ag-presenting B lymphocytes overexpressing MR1*01 (C1R.MR1), MR1^K43A mutant (C1R.MR1^K43A), MR1^R9H mutant (C1R.MR1^R9H), or HLA-A*02:01 (C1R-A2), in addition to the monocytic THP-1-MR1 cells, were used in this study.” for “2022a]).”

MR1 in C1R.MR1 cells = tested on: T11, MR1 in C1R.MR1 cells; test: Endo H treatment and western blot of intracellular MR1; format: cell-based, human; settings: 16 h, Ac-6-FP 10 μM, RF and catabolites 100 μM
T11 construct: expressed in transfected cells; host or cells: C1R B lymphoblastoid cells transduced with MR1*01
Experimental: The downregulation of MR1 on the cell surface by the RF catabolites could be due to the depletion of the intracellular ER-resident MR1 pool, or due to the retention of MR1 in the ER, as shown for the DB28 ligand ([Salio et al., 2020]). To investigate this, C1R.MR1 cells were treated for 16 h with 100 µM RF or RF catabolites, conditions that induce MR1 downregulation (Fig. 3 A). Cells were lysed, and treated with endoglycosidase (Endo) H, to distinguish molecules that remain within the ER from those that have trafficked to the cell surface ([McWilliam et al., 2016]), and then, MR1 levels were assessed by immunoblotting (Fig. 3 A).
C1R.MR1 cells were cultured with different RF catabolites for 16 h, at 37°C. Samples were then treated with or without Endo H for 1-h incubation at 37°C. Cells were lysed, and lysate protein concentration was quantified by BCA assay. Equal amounts of samples (40 µg total protein) were separated on SDS-PAGE gels before being transferred onto nitrocellulose membranes and incubated with primary (anti-MR1; clone 8G3) ([McWilliam et al., 2020]) then corresponding secondary antibody (IRDye 800CW anti-mouse IgG, Cat. No. 925-32210; LICORbio). The protein bands were visualized by the Li-Cor system.

pIC50 (hMR1 protein): 4.27
Compound: Cc1cc2nc3c(=O)[nH]c(=O)nc-3n(CC=O)c2cc1C [FMF, 10-formylmethylflavin]
total level of folded MR1 (intracellular staining with 8F2.F9) [1]: increased the total level of folded MR1
folding of the MR1-β2m cocomplex in solution [2]: facilitated the correct folding of the MR1-β2m cocomplex

Compound: Cc1cc2nc3c(=O)[nH]c(=O)nc-3n(C)c2cc1C [Lumiflavin, lumiflavin]
reactivity to 5-OP-RU (CD69) [3]: enhanced activation
reactivity to RL-7-Me (CD69) [3]: activation was enhanced
MR1 surface expression [4]: reduced MR1 surface expression
Tm50 (half-maximum melting temperature), Mean ± SD (soluble WT MR1): 52.02 ± 0.58 °C
pIC50 (hMR1 protein): 4.64
MR1^K43A at the cell surface ([5]; 3 h): increased MR1^K43A at the cell surface
folding of the MR1-β2m cocomplex in solution [2]: facilitated the correct folding of the MR1-β2m cocomplex
MR1 cell surface expression [6]: downregulated MR1 after 3 h

pIC50 (hMR1 protein): 3.74
Compound: Cc1cc2nc3c(=O)[nH]c(=O)nc-3n(C[C@H](O)[C@H](O)[C@H](O)CO)c2cc1C [RF, riboflavin]
effect on Ac-6-FP–induced cell surface upregulation of MR1 (MR1 on C1R.MR1 cells; then 10 µM Ac-6-FP for 3 h): did not modulate
effect on 5-OP-RU–induced cell surface upregulation of MR1 (MR1 on C1R.MR1 cells; then 5-OP-RU for 3 h): did not modulate
activation (CD69 expression), ligand alone [7]: not activated
reactivity to 5-OP-RU (CD69) [3]: not altered
reactivity to RL-7-Me (CD69) [3]: activation was enhanced
activation (CD69 expression), ligand alone ([3]; SKW-3 AF-7 cocultured with C1R.MR1, no agonist): not activated
MR1 cell surface expression ([8]; 3 h): did not alter MR1 expression from the baseline
MR1 cell surface expression ([8]; 16 h): modestly upregulated MR1; also recorded: modest increase
block of CD69 upregulation and TNF production [9]: neither RF nor RF catabolites could block
effect on Ac-6-FP–induced cell surface upregulation of MR1 (MR1 on THP-1.MR1 cells): did not modulate
MR1^R9H surface level [10]: did not deviate from the background level
MR1^K43A at the cell surface ([5]; 16 h): MR1 upregulation continues
folding of the MR1-β2m cocomplex in solution [2]: did not sponsor refolding of MR1
Endo H–resistant MR1 (MR1 in C1R.MR1 cells): Neither RF nor its catabolites induced any Endo H–resistant MR1

Source: article PMC12650265 (The Journal of Experimental Medicine, 2025)
